# Measurements as given in US10051857B2, “Formulation component” (SYNGENTA LIMITED, priority 2011, dated 2018).
# Legend:
# Format in all cases: in vivo
# [1] = system: four weed species (CHEAL, ABUTH, SETVI, XANST); experiment: Glasshouse adjuvant test with fomesafen (Example 5), mean across species; settings: fomesafen 60 or 120 g/ha, adjuvant 0.2% v/v or none
# Description: (§1) Compound 1 (N, N-diethyl-3-methylbenzamide) was tested in a glasshouse against four weed species using the herbicide fomesafen. An agrochemical composition was prepared containing 0.2% v/v of the adjuvant in a track sprayer and was applied at a volume of 200 liters per hectare. Fomesafen was applied at either 60 or 120 grams of pesticide per hectare on each of the weed species. The weed species and their growth stage at spraying were Chenopodium album (CHEAL; growth stage 13/14), Abutilon theophrasti (ABUTH; growth stage 12), Setaria viridis (SETVI; growth stage 13), and Xanthium strumarium (XANST; growth stage 12).
# (§2) Each spray test was replicated three times. The efficacy of the herbicide was assessed visually and expressed as a percentage of the leaf area killed. Samples were assessed at time periods of 7, 14 and 21 days following application. The results shown in Table 5 below are mean averages over the two rates of fomesafen, three replicates and the three assessment timings, and are compared to the efficacy of fomesafen in the absence of adjuvant.
# Setaria viridis (SETVI) [2] = experiment: Glasshouse adjuvant test with fomesafen (Example 3); settings: fomesafen 60 or 120 g/ha, adjuvant 0.2% v/v or none, 200 l/ha; leaf area killed; mean over two rates, six replicates, 7 and 14 days
# Description: (§3) Compound No. 2 was tested in a glasshouse against four weed species in combination with the herbicide fomesafen. An agrochemical composition was prepared containing 0.2% v/v of the adjuvant in a track sprayer and was applied at a volume of 200 liters per hectare. Fomesafen was applied at either 60 or 120 grams of pesticide per hectare on weeds which had been grown to the 1.3 or 1.4 leaf stage. The weed species were Chenopodium album (CHEAL), Abutilon theophrasti (ABUTH), Setaria viridis (SETVI), and Xanthium strumarium (XANST).
# as §2, with “replicated six” for “replicated three”, “of 7 and” for “of 7,”, “14” for “14 and 21”, “Table 3” for “Table 5”, “fomesafen, six” for “fomesafen, three”, “the two” for “the three”
# [3] = system: Chenopodium album (CHEAL); experiment: as above; settings: fomesafen 60 or 120 g/ha, adjuvant 0.2% v/v or none, 200 l/ha; leaf area killed; mean over two rates, six replicates, 7 and 14 days
# Description: as §3
# as §2, with “replicated six” for “replicated three”, “of 7 and” for “of 7,”, “14” for “14 and 21”, “Table 3” for “Table 5”, “fomesafen, six” for “fomesafen, three”, “the two” for “the three”
# [4] = system: Abutilon theophrasti (ABUTH); experiment: as above; settings: fomesafen 60 or 120 g/ha, adjuvant 0.2% v/v or none, 200 l/ha; leaf area killed; mean over two rates, six replicates, 7 and 14 days
# Description: as §3
# as §2, with “replicated six” for “replicated three”, “of 7 and” for “of 7,”, “14” for “14 and 21”, “Table 3” for “Table 5”, “fomesafen, six” for “fomesafen, three”, “the two” for “the three”
# [5] = system: Xanthium strumarium (XANST); experiment: as above; settings: fomesafen 60 or 120 g/ha, adjuvant 0.2% v/v or none, 200 l/ha; leaf area killed; mean over two rates, six replicates, 7 and 14 days
# Description: as §3
# as §2, with “replicated six” for “replicated three”, “of 7 and” for “of 7,”, “14” for “14 and 21”, “Table 3” for “Table 5”, “fomesafen, six” for “fomesafen, three”, “the two” for “the three”
# [6] = system: four weed species (ABUTH, CHEAL, SETVI, XANST); experiment: Glasshouse adjuvant test with fomesafen (Example 3), mean across species; settings: fomesafen 60 or 120 g/ha, adjuvant 0.2% v/v or none
# Description: as §3
# as §2, with “replicated six” for “replicated three”, “of 7 and” for “of 7,”, “14” for “14 and 21”, “Table 3” for “Table 5”, “fomesafen, six” for “fomesafen, three”, “the two” for “the three”
# Setaria viridis (SETVI) [7] = experiment: Glasshouse adjuvant test with fomesafen (Example 5); settings: fomesafen 60 or 120 g/ha, adjuvant 0.2% v/v or none, 200 l/ha; growth stage 13; mean over two rates, three replicates, 7, 14 and 21 days
# Description: as §1, §2
# [8] = system: Chenopodium album (CHEAL); experiment: as above; settings: fomesafen 60 or 120 g/ha, adjuvant 0.2% v/v or none, 200 l/ha; growth stage 13/14; mean over two rates, three replicates, 7, 14 and 21 days
# Description: as §1, §2
# [9] = system: Abutilon theophrasti (ABUTH); experiment: as above; settings: fomesafen 60 or 120 g/ha, adjuvant 0.2% v/v or none, 200 l/ha; growth stage 12; mean over two rates, three replicates, 7, 14 and 21 days
# Description: as §1, §2
# [10] = system: Xanthium strumarium (XANST); experiment: as above; settings: fomesafen 60 or 120 g/ha, adjuvant 0.2% v/v or none, 200 l/ha; growth stage 12; mean over two rates, three replicates, 7, 14 and 21 days
# Description: as §1, §2
# Setaria viridis (SETVI) [11] = experiment: Glasshouse adjuvant test with pinoxaden (Example 8); settings: pinoxaden 7.5 or 15 g/ha, adjuvant 0.2% v/v or none, 200 l/ha; growth stage 14; mean over two rates, three replicates, 14 and 21 days
# Description: (§4) The adjuvant shown in example 1 was tested in a glasshouse against four weed species in combination with the herbicide pinoxaden. A 20% w/w stock emulsion of compound 1 was prepared additionally containing 2% w/w Gohsenol® GL03 and 2% w/w Pluronic® PE10500 as surfactants. Using this, an agrochemical composition was prepared containing 0.2% v/v of the adjuvant in a track sprayer and was applied at a volume of 200 liters per hectare. Pinoxaden was applied at either 7.5 or 15 grams of pesticide per hectare on each of the weed species. The weed species and their growth stage at spraying were Alopecurus myosuroides (ALOMY; growth stage 13), Avena fatua (AVEFA; growth stage 12); Lolium perenne (LOLPE; growth stage 13), Setaria viridis (SETVI; growth stage 14).
# as §2, with “of” for “of 7,”, “Table 8” for “Table 5 below”, “of pinoxaden,” for “of fomesafen,”, “the two” for “the three”, “of pinoxaden” for “of fomesafen”
# Lolium perenne (LOLPE) = experiment: as above; settings: pinoxaden 7.5 or 15 g/ha, adjuvant 0.2% v/v or none, 200 l/ha; growth stage 13; mean over two rates, three replicates, 14 and 21 days
# Description: as §4
# as §2, with “of” for “of 7,”, “Table 8” for “Table 5 below”, “of pinoxaden,” for “of fomesafen,”, “the two” for “the three”, “of pinoxaden” for “of fomesafen”
# Avena fatua (AVEFA) = experiment: as above; settings: pinoxaden 7.5 or 15 g/ha, adjuvant 0.2% v/v or none, 200 l/ha; growth stage 12; mean over two rates, three replicates, 14 and 21 days
# Description: as §4
# as §2, with “of” for “of 7,”, “Table 8” for “Table 5 below”, “of pinoxaden,” for “of fomesafen,”, “the two” for “the three”, “of pinoxaden” for “of fomesafen”
# [12] = system: Alopecurus myosuroides (ALOMY); experiment: as above; settings: pinoxaden 7.5 or 15 g/ha, adjuvant 0.2% v/v or none, 200 l/ha; growth stage 13; mean over two rates, three replicates, 14 and 21 days
# Description: as §4
# as §2, with “of” for “of 7,”, “Table 8” for “Table 5 below”, “of pinoxaden,” for “of fomesafen,”, “the two” for “the three”, “of pinoxaden” for “of fomesafen”
# [13] = system: four weed species (ALOMY, AVEFA, LOLPE, SETVI); experiment: Glasshouse adjuvant test with pinoxaden (Example 8), mean across species; settings: pinoxaden 7.5 or 15 g/ha, adjuvant 0.2% v/v or none
# Description: as §4
# as §2, with “of” for “of 7,”, “Table 8” for “Table 5 below”, “of pinoxaden,” for “of fomesafen,”, “the two” for “the three”, “of pinoxaden” for “of fomesafen”
# [14] = system: Polygonum convolvulus (POLCO); experiment: Glasshouse adjuvant test with mesotrione (Example 6); settings: mesotrione 45 or 90 g/ha, adjuvant 0.2% v/v or none, 200 l/ha; growth stage 11/11.5; mean over two rates, three replicates, 7, 14 and 21 days
# Description: (§5) Compound 1 was tested in a glasshouse against four weed species using the herbicide mesotrione. A 20% w/w stock emulsion of compound 1 was prepared additionally containing 2% w/w Gohsenol® GL03 and 2% w/w Pluronic® PE10500 as surfactants. Using this, an agrochemical composition was prepared containing 0.2% v/v of the adjuvant in a track sprayer and was applied at a volume of 200 liters per hectare. Mesotrione was applied at either 45 or 90 grams of pesticide per hectare on each of the weed species. The weed species and their growth stage at spraying were Amaranthus tuberculatus (AMATE; growth stage 13/14), Brachiaria decumbens (BRADE; growth stage 13/14), Digitaria sanguinalis (DIGSA; growth stage 14), and Polygonum convolvulus (POLCO; growth stage 11/11.5).
# as §2, with “Each” for “Each spray”, “6” for “5”, “mesotrione,” for “fomesafen,”, “mesotrione” for “fomesafen”, “in” for “in the”
# [15] = system: Digitaria sanguinalis (DIGSA); experiment: as above; settings: mesotrione 45 or 90 g/ha, adjuvant 0.2% v/v or none, 200 l/ha; growth stage 14; mean over two rates, three replicates, 7, 14 and 21 days
# Description: as §5
# as §2, with “Each” for “Each spray”, “6” for “5”, “mesotrione,” for “fomesafen,”, “mesotrione” for “fomesafen”, “in” for “in the”
# [16] = system: Amaranthus tuberculatus (AMATE); experiment: as above; settings: mesotrione 45 or 90 g/ha, adjuvant 0.2% v/v or none, 200 l/ha; growth stage 13/14; mean over two rates, three replicates, 7, 14 and 21 days
# Description: as §5
# as §2, with “Each” for “Each spray”, “6” for “5”, “mesotrione,” for “fomesafen,”, “mesotrione” for “fomesafen”, “in” for “in the”
# [17] = system: Brachiaria decumbens (BRADE); experiment: as above; settings: mesotrione 45 or 90 g/ha, adjuvant 0.2% v/v or none, 200 l/ha; growth stage 13/14; mean over two rates, three replicates, 7, 14 and 21 days
# Description: as §5
# as §2, with “Each” for “Each spray”, “6” for “5”, “mesotrione,” for “fomesafen,”, “mesotrione” for “fomesafen”, “in” for “in the”
# [18] = system: four weed species (AMATE, BRADE, DIGSA, POLCO); experiment: Glasshouse adjuvant test with mesotrione (Example 6), mean across species; settings: mesotrione 45 or 90 g/ha, adjuvant 0.2% v/v or none
# Setaria viridis (SETVI) [19] = experiment: Glasshouse adjuvant test with nicosulfuron (Example 7); settings: nicosulfuron 30 or 60 g/ha, adjuvant 0.2% v/v or none, 200 l/ha; growth stage 13; mean over two rates, three replicates, 14 and 21 days
# Description: (§6) Compound 1 was tested in a glasshouse against four weed species using the herbicide nicosulfuron. A 20% w/w stock emulsion of compound 1 was prepared additionally containing 2% w/w Gohsenol® GL03 and 2% w/w Pluronic® PE10500 as surfactants. Using this, an agrochemical composition was prepared containing 0.2% v/v of the adjuvant in a track sprayer and was applied at a volume of 200 liters per hectare. Nicosulfuron was applied at either 30 or 60 grams of pesticide per hectare on each of the weed species. The weed species and their growth stage at spraying were Abutilon theophrasti (ABUTH; growth stage 13), Chenopodium album (CHEAL; growth stage 14), Digitaria sanguinalis (DIGSA; growth stage 13), and Setaria viridis (SETVI; growth stage 13).
# (§7) Each spray test replicated three times. The efficacy of the herbicide was assessed visually and expressed as a percentage of the leaf area killed. Samples were assessed at time periods of 14 and 21 days following application. The results shown in Table 7 below are mean averages over the two rates of nicosulfuron, three replicates and the two assessment timings, and are compared to the efficacy of nicosulfuron in the absence of an adjuvant.
# [20] = system: Chenopodium album (CHEAL); experiment: as above; settings: nicosulfuron 30 or 60 g/ha, adjuvant 0.2% v/v or none, 200 l/ha; growth stage 14; mean over two rates, three replicates, 14 and 21 days
# Description: as §6, §7
# [21] = system: Digitaria sanguinalis (DIGSA); experiment: as above; settings: nicosulfuron 30 or 60 g/ha, adjuvant 0.2% v/v or none, 200 l/ha; growth stage 13; mean over two rates, three replicates, 14 and 21 days
# Description: as §6, §7
# [22] = system: Abutilon theophrasti (ABUTH); experiment: as above; settings: nicosulfuron 30 or 60 g/ha, adjuvant 0.2% v/v or none, 200 l/ha; growth stage 13; mean over two rates, three replicates, 14 and 21 days
# Description: as §6, §7
# [23] = system: four weed species (ABUTH, CHEAL, DIGSA, SETVI); experiment: Glasshouse adjuvant test with nicosulfuron (Example 7), mean across species; settings: nicosulfuron 30 or 60 g/ha, adjuvant 0.2% v/v or none
# Description: as §6, §7
smiles,measurement,setting,value
"CS(=O)(=O)NC(=O)c1cc(Oc2ccc(C(F)(F)F)cc2Cl)ccc1[N+](=O)[O-] [fomesafen, reference compound]","Mean percentage kill, Mean across species",[1],37.7%
same,Mean percentage kill SETVI,Setaria viridis (SETVI) [2],38.2%
same,Mean percentage kill CHEAL,[3],43.3%
same,Mean percentage kill ABUTH,[4],60.8%
same,Mean percentage kill XANST,[5],45.8%
same,"Mean percentage kill, Mean across species",[6],47.0%
same,Mean percentage kill SETVI,Setaria viridis (SETVI) [7],10.6%
same,Mean percentage kill CHEAL,[8],77.5%
same,Mean percentage kill ABUTH,[9],20%
same,Mean percentage kill XANST,[10],42.8%
"CCc1cc(C)cc(CC)c1-c1c(OC(=O)C(C)(C)C)n2n(c1=O)CCOCC2 [Pinoxaden, pinoxaden, reference compound]",Mean percentage kill SETVI,Setaria viridis (SETVI) [11],15%
same,Mean percentage kill LOLPE,Lolium perenne (LOLPE),12.5%
same,Mean percentage kill AVEFA,Avena fatua (AVEFA),20.8%
same,Mean percentage kill ALOMY,[12],21.2%
same,"Mean percentage kill, Mean across species",[13],17.4%
"CS(=O)(=O)c1ccc(C(=O)C2C(=O)CCCC2=O)c([N+](=O)[O-])c1 [mesotrione, reference compound]",Mean percentage kill POLCO,[14],73.3%
same,Mean percentage kill DIGSA,[15],23%
same,Mean percentage kill AMATE,[16],65.6%
same,Mean percentage kill BRADE,[17],26.7%
same,"Mean percentage kill, Mean across species",[18],47.1%
"COc1cc(OC)nc(NC(=O)NS(=O)(=O)c2ncccc2C(=O)N(C)C)n1 [nicosulfuron, reference compound]",Mean percentage kill SETVI,Setaria viridis (SETVI) [19],92%
same,Mean percentage kill CHEAL,[20],50.8%
same,Mean percentage kill DIGSA,[21],87.9%
same,Mean percentage kill ABUTH,[22],69.2%
same,"Mean percentage kill, Mean across species",[23],75%
